# Patent US8865704B2, “Wnt pathway antagonists” (Siena Biotech S.p.A., priority 2009, dated 2014)
# Tested on: Wnt/β-catenin pathway
# Experiment: Wnt reporter assay (TCF-Luciferase, Firefly) in DBTRG-05MG cells
# Type: cell-based
# Conditions: Homo sapiens, 24 hours after compound addition
# Method: TCF-Luciferase: Three copies of a 4×TCF responsive elements were cloned into the pcDNA3.1/Zeo(+) vector (Invitrogen) after deletion of the constitutive CMV promoter and the insertion of the Firefly Luciferase from Promega (phFL-TK) to measure the activity of the Wnt/β-catenin pathway. The resulting plasmid was sequenced for quality control.
# Cells were grown in 20 μg/ml Zeocin and 20 μg/ml Zeocin plus 30 μg/ml Hygromicin respectively. The cells were plated at a density of 6500 cells/well in poly-D-lysine pre-treated 96 well-plates.
# IC50 determination: 36 hours after plating cells were incubated with 8-points (60 μM-40 μM-20 μM-10 μM-5 μM-1.66 μM-0.55 μM-0.185 μM) dilutions compound (0.6% DMSO (v/v)). Each compound was tested in triplicate in single plate. Luciferase detection was done with Dual-Luciferase Reporter Assay System (Promega). 24 hours after compound addition, media was removed and 30 μl of 1× lysis buffer was added to each well for 30 minutes. To each well 45 μl of Dual-Glo Luciferase reagent (Promega) were added and after 1 second delay Luciferase was detected for 1 second using Mithras LB940 instrument. After Firefly luciferase quantification 45 μl of Dual Stop & Glo reagent (Promega) were added to each well and Firefly Renilla was detected using the same parameters described before.
# Data were expressed as % of control for Firefly and Renilla luciferase independently; values were calculated using XLFit version 4.2, with a four parameters sigmoid function (XLFit model 205).
row,Structure (SMILES),IC50 [µM]
1,"O=c1[nH]c2ccccc2c(=O)n1C[C@H]1CC[C@H](C(=O)N2CCN(c3ncccn3)CC2)CC1 [Example 1, trans-3-[4-(4-Pyrimidin-2-yl-piperazine-1-carbonyl)-cyclohexylmethyl]-1H-quinazoline-2,4-dione]",0.3 to 30
2,"Cn1c(=O)n(C[C@H]2CC[C@H](C(=O)N3CCN(c4ccccc4)CC3)CC2)c(=O)c2ccccc21 [Example 2, trans-1-Methyl-3-[4-(4-phenyl-piperazine-1-carbonyl)-cyclohexylmethyl]-1H-quinazoline-2,4-dione]",0.3 to 30
3,"O=C(C1CCCO1)N1CCN(C(=O)[C@H]2CC[C@H](Cn3c(=O)[nH]c4ccccc4c3=O)CC2)CC1 (stereo partly shown) [Example 4, 3-{4-[4-(Tetrahydro-furan-2-carbonyl)-piperazine-1-carbonyl]-cyclohexylmethyl}-1H-quinazoline-2,4-dione]",0.3 to 30
4,"CC(C)C(=O)N1CCN(C(=O)[C@H]2CC[C@H](CN3C(=O)CC(c4ccccc4)NC3=O)CC2)CC1 (stereo partly drawn) [Example 6, 3-[trans-4-(4-Isobutyryl-piperazine-1-carbonyl)-cyclohexylmethyl]-6-phenyl-dihydro-pyrimidine-2,4-dione]",0.3 to 30
5,"O=C(C1CC1)N1CCN(C(=O)[C@H]2CC[C@H](CN3Cc4ccccc4NC3=O)CC2)CC1 [Example 7, 3-[trans-4-(4-Cyclopropanecarbonyl-piperazine-1-carbonyl)cyclohexylmethyl]-3,4-dihydro-1H-quinazolin-2-one]",0.3 to 30
6,"COc1ccc2[nH]c(=O)n(C[C@H]3CC[C@H](C(=O)N4CCOCC4)CC3)c2c1 [Example 8, 6-Methoxy-1-[trans-4-(morpholine-4-carbonyl)-cyclohexylmethyl]-1,3-dihydro-benzoimidazol-2-one]",0.3 to 30
7,"COc1ccc2c(c1)n(C[C@H]1CC[C@H](C(=O)N3CCOCC3)CC1)c(=O)n2C [Example 9, 5-Methoxy-1-methyl-3-[trans-4-(morpholine-4-carbonyl)-cyclohexylmethyl]-1,3-dihydro-benzoimidazol-2-one]",0.3 to 30
8,"O=C(C1CC1)N1CCN(C(=O)[C@H]2CC[C@H](Cn3c(=O)[nH]c4ccc(Cl)cc43)CC2)CC1 [Example 11, 6-Chloro-1-[trans-4-(4-cyclopropanecarbonyl-piperazine-1-carbonyl)cyclohexylmethyl]-1,3-dihydro-benzoimidazol-2-one]",0.3 to 30
9,"CC(=O)N1CCN(C(=O)[C@H]2CC[C@H](CN3C(=O)Cc4ccccc4C3=O)CC2)CC1 [Example 12, 2-[trans-4-(4-Acetyl-piperazine-1-carbonyl)-cyclohexylmethyl]-4H-isoquinoline-1,3-dione]",0.3 to 30
10,"O=C1CN(C[C@H]2CC[C@H](C(=O)N3CCN(c4ccccn4)CC3)CC2)C(=O)c2ccccc2N1 [Example 13, 4-[trans-4-(4-pyridin-2-yl-piperazine-1-carbonyl)-cyclohexylmethyl]-3,4-dihydro-1H-benzo[e][1,4]diazepine-2,5-dione]",0.3 to 30
11,"CN1C(=O)CN(C[C@H]2CC[C@H](C(=O)N3CCN(c4ccccn4)CC3)CC2)C(=O)c2ccccc21 [Example 14, 1-Methyl-4-[trans-4-(4-pyridin-2-yl-piperazine-1-carbonyl)-cyclohexylmethyl]-3,4-dihydro-1H-benzo[e][1,4]diazepine-2,5-dione]",0.3 to 30
12,"CN1C(=O)N(C[C@H]2CC[C@H](C(=O)N3CCN(c4ccccn4)CC3)CC2)C(=O)Cc2ccccc21 [Example 15, 1-Methyl-3-[trans-4-(4-pyridin-2-yl-piperazine-1-carbonyl)-cyclohexylmethyl]-1,5-dihydro-benzo[d][1,3]diazepine-2,4-dione]",0.3 to 30
13,"O=C1Nc2ccccc2CCN1C[C@H]1CC[C@H](C(=O)N2CCN(c3ccccn3)CC2)CC1 [Example 16, 3-[trans-4-(4-pyridin-2-yl-piperazine-1-carbonyl)-cyclohexylmethyl]-1,3,4,5-tetrahydro-benzo[d][1,3]diazepin-2-one]",0.3 to 30
14,"COc1ccc2c(c1)n(C[C@H]1CC[C@H](C(=O)N3CCN(C(C)=O)CC3)CC1)c(=O)n2C [Example 17, 3-[trans-4-(4-Acetyl-piperazine-1-carbonyl)-cyclohexylmethyl]-5-methoxy-1-methyl-1,3-dihydro-benzoimidazol-2-one]",0.3 to 30
15,O=C(C1CCC(Cn2cnc3ccccc3c2=O)CC1)N1CCN(Cc2ccccc2)CC1 (stereo not shown) [Example 19],0.3 to 30
16,O=C(C1CCC(Cn2c(=O)[nH]c3ccccc3c2=O)CC1)N1CCOCC1 (stereo not shown) [Example 22],0.3 to 30
17,O=C(Nc1cccnc1)C1CCC(Cn2c(=O)[nH]c3ccccc3c2=O)CC1 (stereo not shown) [Example 23],0.3 to 30
18,O=c1[nH]c2ccccc2c(=O)n1C[C@H]1CC[C@H](C(=O)N2CCN(Cc3ccccc3)CC2)CC1 [Example 24],0.3 to 30
19,O=c1[nH]c2ccc(Cl)cc2c(=O)n1C[C@H]1CC[C@H](C(=O)N2CCN(Cc3ccccc3)CC2)CC1 [Example 25],0.3 to 30
20,COc1ccc(N2CCN(C(=O)C3CCC(Cn4c(=O)[nH]c5ccccc5c4=O)CC3)CC2)cc1 (stereo not shown) [Example 28],0.3 to 30
21,CC(C)C(=O)N1CCN(C(=O)[C@H]2CC[C@H](Cn3c(=O)[nH]c4ccccc4c3=O)CC2)CC1 [Example 30],0.3 to 30
22,COCC(=O)N1CCN(C(=O)[C@H]2CC[C@H](Cn3c(=O)[nH]c4ccccc4c3=O)CC2)CC1 [Example 31],0.3 to 30
23,O=C(CCC1CCCC1)N1CCN(C(=O)[C@H]2CC[C@H](Cn3c(=O)[nH]c4ccccc4c3=O)CC2)CC1 [Example 32],0.3 to 30
24,CC(=O)N1CCN(C(=O)[C@H]2CC[C@H](Cn3c(=O)[nH]c4ccccc4c3=O)CC2)CC1 [Example 33],0.3 to 30
25,CC(C)(C)NC(=O)N1CCN(C(=O)[C@H]2CC[C@H](Cn3c(=O)[nH]c4ccccc4c3=O)CC2)CC1 [Example 34],0.3 to 30

row,Structure (SMILES),IC50 [µM]
1,CCCCC(=O)N1CCN(C(=O)[C@H]2CC[C@H](Cn3c(=O)[nH]c4ccccc4c3=O)CC2)CC1 [Example 35],0.3 to 30
2,O=C(c1ccno1)N1CCN(C(=O)[C@H]2CC[C@H](Cn3c(=O)[nH]c4ccccc4c3=O)CC2)CC1 [Example 36],0.3 to 30
3,COc1ccc(CN2CCN(C(=O)[C@H]3CC[C@H](Cn4c(=O)[nH]c5ccccc5c4=O)CC3)CC2)cc1 [Example 38],0.3 to 30
4,COc1cccc(CN2CCN(C(=O)[C@H]3CC[C@H](Cn4c(=O)[nH]c5ccccc5c4=O)CC3)CC2)c1 [Example 39],0.3 to 30
5,Cc1ccc(CN2CCN(C(=O)[C@H]3CC[C@H](Cn4c(=O)[nH]c5ccccc5c4=O)CC3)CC2)o1 [Example 40],0.3 to 30
6,CC(C)N1CCN(C(=O)[C@H]2CC[C@H](Cn3c(=O)[nH]c4ccccc4c3=O)CC2)CC1 [Example 41],0.3 to 30
7,O=C(N1CCCC1)N1CCN(C(=O)[C@H]2CC[C@H](Cn3c(=O)[nH]c4ccccc4c3=O)CC2)CC1 [Example 42],0.3 to 30
8,CC(C)N1CCN(C(=O)[C@H]2CC[C@H](Cn3c(=O)[nH]c4ccc(Cl)cc4c3=O)CC2)CC1 [Example 43],0.3 to 30
9,O=C1CC(c2ccccc2)NC(=O)N1C[C@H]1CC[C@H](C(=O)N2CCN(c3ccccc3)CC2)CC1 (stereo partly shown) [Example 44],0.3 to 30
10,O=C1Nc2ccccc2CN1C[C@H]1CC[C@H](C(=O)N2CCN(c3ccccc3)CC2)CC1 [Example 45],0.3 to 30
11,CN1C(=O)N(C[C@H]2CC[C@H](C(=O)N3CCN(c4ccccc4)CC3)CC2)Cc2ccccc21 [Example 46],0.3 to 30
12,O=c1[nH]c2ccccc2c(=O)n1C[C@H]1CC[C@H](C(=O)Nc2ccc3ncsc3c2)CC1 [Example 49],0.3 to 30
13,CC(c1ccccc1)N1CCN(C(=O)C2CCC(Cn3c(=O)[nH]c4ccccc4c3=O)CC2)CC1 (stereo not shown) [Example 50],0.3 to 30
14,CC(C)C(=O)N1CCN(C(=O)[C@H]2CC[C@H](Cn3c(=O)[nH]c4cccc(Cl)c4c3=O)CC2)CC1 [Example 51],0.3 to 30
15,CC(=O)N1CCN(C(=O)[C@H]2CC[C@H](Cn3c(=O)c4ccccc4n(C)c3=O)CC2)CC1 [Example 52],0.3 to 30
16,COCC(=O)N1CCN(C(=O)[C@H]2CC[C@H](Cn3c(=O)c4ccccc4n(C)c3=O)CC2)CC1 [Example 53],0.3 to 30
17,CC(C)C(=O)N1CCN(C(=O)[C@H]2CC[C@H](Cn3c(=O)[nH]c4cccc(F)c4c3=O)CC2)CC1 [Example 54],0.3 to 30
18,COc1cccc2[nH]c(=O)n(C[C@H]3CC[C@H](C(=O)N4CCN(C(=O)C(C)C)CC4)CC3)c(=O)c12 [Example 55],0.3 to 30
19,CC(C)C(=O)N1CCN(C(=O)[C@H]2CC[C@H](Cn3c(=O)n(C)c4ccccc43)CC2)CC1 [Example 61],0.3 to 30
20,COCC(=O)N1CCN(C(=O)[C@H]2CC[C@H](Cn3c(=O)[nH]c4ccc(Cl)cc4c3=O)CC2)CC1 [Example 62],0.3 to 30
21,O=C(C1CC1)N1CCN(C(=O)[C@H]2CC[C@H](Cn3c(=O)[nH]c4ccc(Cl)cc4c3=O)CC2)CC1 [Example 63],0.3 to 30
22,CC(C)Cn1c(=O)n(C[C@H]2CC[C@H](C(=O)N3CCN(C(=O)C4CC4)CC3)CC2)c(=O)c2ccccc21 [Example 64],0.3 to 30
23,COc1ccc2[nH]c(=O)n(C[C@H]3CC[C@H](C(=O)N4CCN(C(=O)C5CCCC5)CC4)CC3)c(=O)c2c1 [Example 65],0.3 to 30
24,CN1C(=O)N(C[C@H]2CC[C@H](C(=O)N3CCN(C(=O)C4CC4)CC3)CC2)Cc2ccccc21 [Example 67],0.3 to 30
